Data from patent publication US6620587B1, “Ribosome complexes as selection particles for in vitro display and evolution of proteins” (Discerna Limited, priority 1997, dated 2003).

Target: DB3 VH/K expressed as an ARM
Assay: Inhibition by free steroids of DB3 VH/K ARM binding to progesterone-coated beads
Parameters: species or system mouse
Conditions: free steroid added to DB3 ARM mixture
Procedure: FIG. 6. […] This supports the correct folding of the antibody fragment on the ribosome.
The free steroid inibitors were added to the DB3 ARM mixture in order to block binding to the progesterone-coated beads. They are progesterone-11α-hemisuccinate (HMS) (P11), progesterone-3-carboxymethyloxime (P3); progesterone-6-HMS (P6) and progesterone-21-HMS (P21). The inhibition of free DB3 VH/K in an ELISA reaction is shown on the right, with the efficiency of the steroids in the order P11>P3>P6>P21.

SMILES: CC(=O)[C@H]1CC[C@H]2[C@@H]3CCC4=CC(=O)CC[C@]4(C)[C@H]3[C@H](OC(=O)CCC(=O)O)C[C@]12C [progesterone-11α-HMS, progesterone-11α-hemisuccinate]
- 50% inhibition of DB3 VH/K ARM binding: 1 ng
- IC50 (read-out: 50% inhibition of DB3 VH/K ARM binding): 2.5 nM
